What is called IC50 is the concentration needed to halve the response being measured. A higher IC50 goes with a need for much substance.

The experiment in a line: Inhibition of prolyl 4-hydroxylase.
The compound `O=C(NS(=O)(=O)c1ccc(Cl)s1)c1ccc(C(=O)O)nc1` displayed a concentration for half-maximal inhibition (IC50) of 2400 nM.
For the compound `O=C(NS(=O)(=O)c1cc(Br)c(Br)s1)c1ccc(C(=O)O)nc1`, the midpoint of inhibition, the IC50, lay at 8500 nM.
For `O=C(NS(=O)(=O)Cc1ccccc1)c1ccc(C(=O)O)nc1`, the IC50 is 3000 nM.
As for `O=C(NS(=O)(=O)c1cccc2ccccc12)c1ccc(C(=O)O)nc1`, the IC50 was 4400 nM.
The same measure for `O=C(NS(=O)(=O)c1ccc(-c2cc(Cl)c3ccc(Cl)cc3n2)cc1)c1ccc(C(=O)O)nc1`: 6600 nM; for `O=C(NS(=O)(=O)c1cccc2cccnc12)c1ccc(C(=O)O)nc1`: 1800 nM; for `CS(=O)(=O)NC(=O)c1ccc(C(=O)O)nc1`: 1800 nM.

The values above are taken from BindingDB's records for doi:10.1021/jm00083a001 (Ici Pharmaceuticals Group, 1992).
